Measurements from paper PMC5214803 (Scientific Reports, 2017).

Target: T1, Apc holoenzyme (Apc core complex plus Apcε) (Aromatoleum aromaticum, UniProt Q5P5G2+Q5P5G4)
T1 construct: gene apc3
Details: ATP sites in Apcα and Apcα′ inferred from structure

T1 sequence (Q5P5G4 2-732): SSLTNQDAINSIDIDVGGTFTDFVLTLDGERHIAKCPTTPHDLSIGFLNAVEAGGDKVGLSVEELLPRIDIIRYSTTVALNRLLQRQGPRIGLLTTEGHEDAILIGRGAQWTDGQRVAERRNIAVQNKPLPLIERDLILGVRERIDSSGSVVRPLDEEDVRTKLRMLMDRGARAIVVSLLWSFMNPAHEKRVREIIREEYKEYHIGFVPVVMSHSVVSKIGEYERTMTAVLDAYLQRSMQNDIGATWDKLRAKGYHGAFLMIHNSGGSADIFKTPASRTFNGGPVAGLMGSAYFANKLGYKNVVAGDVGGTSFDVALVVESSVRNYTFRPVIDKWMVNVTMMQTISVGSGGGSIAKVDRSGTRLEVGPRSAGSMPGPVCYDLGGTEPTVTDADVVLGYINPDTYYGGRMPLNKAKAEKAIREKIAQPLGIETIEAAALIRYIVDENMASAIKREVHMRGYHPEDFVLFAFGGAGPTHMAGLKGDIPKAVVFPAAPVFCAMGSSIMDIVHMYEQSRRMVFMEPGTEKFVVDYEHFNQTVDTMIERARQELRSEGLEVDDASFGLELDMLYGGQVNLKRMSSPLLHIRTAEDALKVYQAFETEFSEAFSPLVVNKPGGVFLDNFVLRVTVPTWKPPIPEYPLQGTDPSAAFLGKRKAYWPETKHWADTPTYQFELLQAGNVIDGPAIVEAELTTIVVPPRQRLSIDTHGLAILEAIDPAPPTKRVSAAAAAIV
T1 sequence (Q5P5G2 whole entry): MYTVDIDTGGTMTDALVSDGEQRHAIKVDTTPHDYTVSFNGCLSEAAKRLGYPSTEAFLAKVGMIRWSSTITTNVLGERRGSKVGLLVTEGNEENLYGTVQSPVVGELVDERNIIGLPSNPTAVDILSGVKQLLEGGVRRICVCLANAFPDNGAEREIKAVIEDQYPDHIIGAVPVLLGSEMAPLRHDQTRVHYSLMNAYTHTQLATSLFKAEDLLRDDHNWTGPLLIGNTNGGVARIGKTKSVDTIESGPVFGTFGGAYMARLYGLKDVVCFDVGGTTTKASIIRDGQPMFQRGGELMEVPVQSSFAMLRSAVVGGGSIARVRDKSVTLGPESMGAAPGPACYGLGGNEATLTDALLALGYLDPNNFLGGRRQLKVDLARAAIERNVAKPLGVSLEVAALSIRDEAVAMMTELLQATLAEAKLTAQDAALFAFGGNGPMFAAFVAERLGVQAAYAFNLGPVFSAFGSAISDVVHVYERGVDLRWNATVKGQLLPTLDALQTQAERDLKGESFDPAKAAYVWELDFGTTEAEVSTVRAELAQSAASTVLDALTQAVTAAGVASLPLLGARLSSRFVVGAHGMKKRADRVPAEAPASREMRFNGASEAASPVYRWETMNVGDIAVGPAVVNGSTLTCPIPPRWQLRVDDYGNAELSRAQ
T1 sequence (Q5P5G5 2-684 partner): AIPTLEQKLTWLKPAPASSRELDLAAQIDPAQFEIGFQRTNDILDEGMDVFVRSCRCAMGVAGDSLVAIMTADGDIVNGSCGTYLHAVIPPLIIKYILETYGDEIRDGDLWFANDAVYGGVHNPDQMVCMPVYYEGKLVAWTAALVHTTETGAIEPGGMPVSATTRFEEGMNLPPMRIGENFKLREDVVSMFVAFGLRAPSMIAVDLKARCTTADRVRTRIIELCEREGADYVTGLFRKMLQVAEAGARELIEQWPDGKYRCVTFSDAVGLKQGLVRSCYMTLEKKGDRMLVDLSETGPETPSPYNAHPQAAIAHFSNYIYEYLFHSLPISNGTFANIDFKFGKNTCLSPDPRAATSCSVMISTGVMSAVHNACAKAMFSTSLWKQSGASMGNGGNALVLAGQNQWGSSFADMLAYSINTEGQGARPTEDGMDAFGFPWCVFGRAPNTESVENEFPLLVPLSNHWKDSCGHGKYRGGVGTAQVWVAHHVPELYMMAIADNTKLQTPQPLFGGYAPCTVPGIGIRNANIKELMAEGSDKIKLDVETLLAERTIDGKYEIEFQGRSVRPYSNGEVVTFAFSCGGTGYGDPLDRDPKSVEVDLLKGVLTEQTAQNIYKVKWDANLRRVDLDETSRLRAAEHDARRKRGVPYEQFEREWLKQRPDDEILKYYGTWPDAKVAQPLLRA
T1 sequence (Q5P5G3 whole entry partner): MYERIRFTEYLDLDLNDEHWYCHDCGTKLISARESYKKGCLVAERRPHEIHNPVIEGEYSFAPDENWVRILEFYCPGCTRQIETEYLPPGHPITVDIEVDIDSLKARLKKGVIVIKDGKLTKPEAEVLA
T1 sequence (Q5P5G6 whole entry partner): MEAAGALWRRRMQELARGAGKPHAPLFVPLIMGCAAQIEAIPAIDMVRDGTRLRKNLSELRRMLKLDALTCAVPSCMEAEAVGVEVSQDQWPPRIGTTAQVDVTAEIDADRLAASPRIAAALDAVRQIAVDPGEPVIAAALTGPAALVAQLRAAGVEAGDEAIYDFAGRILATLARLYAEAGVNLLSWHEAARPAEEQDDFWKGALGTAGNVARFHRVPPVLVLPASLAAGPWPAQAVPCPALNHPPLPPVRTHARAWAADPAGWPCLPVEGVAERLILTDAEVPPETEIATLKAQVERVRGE

Compound: Nc1ncnc2c1ncn2[C@@H]1O[C@H](COP(=O)(O)OP(=O)(O)OP(=O)(O)O)[C@@H](O)[C@H]1O [ATP]
- ATPase activity assay: confirmed by determination of the ATPase activity and carboxylation of acetophenone
